# Source: US12011444B2, “N-substituted indole derivatives as PGE2 receptor modulators” (Idorsia Pharmaceuticals Ltd, priority 2015, dated 2024)
# How the values were obtained:
# PTGER2 (EP2) = PTGER2 (EP2) (Homo sapiens (Human), UniProt P43116); assay: hEP2 b-arrestin assay (PathHunter HEK 293 PTGER2 b-arrestin cells); format: cell-based; details: antagonistic activity on hEP2; mean where measured multiple times
# Method in brief: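 HEK293 cells expressing ProLink-tagged EP2 and EA-fused β-arrestin 2 (enzyme fragment complementation) were seeded 24 h, pre-incubated with compound 15 min at 37 °C, then stimulated with 5 μM PGE2 (final) for 120 min.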
# PTRGER4 (EP4) = PTRGER4 (EP4) (Homo sapiens (Human), UniProt P35408); assay: hEP4 b-arrestin assay (PathHunter HEK 293 PTGER4 b-arrestin cells); format: cell-based; details: antagonistic activity on hEP4; mean where measured multiple times
# Method in brief: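 Stably transfected HEK293 cells carrying EP4–ProLink and β-arrestin 2–EA (β-gal fragment complementation), pre-incubated with compound 15 min at 37 °C, then stimulated with PGE2 (20 nM final) for 120 min at 37 °C. Chemiluminescence read after 1 h detection reagent at room temperature; activity per concentration expressed as percent of DMSO control.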
# PTGER2 (EP2), sequence (P43116 whole entry, the tested form may be a part): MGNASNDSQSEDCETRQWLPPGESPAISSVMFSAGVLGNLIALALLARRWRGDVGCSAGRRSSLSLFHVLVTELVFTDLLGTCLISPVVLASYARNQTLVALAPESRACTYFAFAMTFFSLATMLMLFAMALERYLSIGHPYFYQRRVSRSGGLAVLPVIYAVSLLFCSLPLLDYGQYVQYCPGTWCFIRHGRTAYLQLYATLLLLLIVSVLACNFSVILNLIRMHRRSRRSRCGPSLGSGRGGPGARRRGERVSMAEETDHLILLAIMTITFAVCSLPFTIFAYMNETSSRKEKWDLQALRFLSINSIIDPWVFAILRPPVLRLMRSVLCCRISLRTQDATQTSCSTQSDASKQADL
# PTRGER4 (EP4), sequence (P35408 whole entry, looked up, the tested form may be a part): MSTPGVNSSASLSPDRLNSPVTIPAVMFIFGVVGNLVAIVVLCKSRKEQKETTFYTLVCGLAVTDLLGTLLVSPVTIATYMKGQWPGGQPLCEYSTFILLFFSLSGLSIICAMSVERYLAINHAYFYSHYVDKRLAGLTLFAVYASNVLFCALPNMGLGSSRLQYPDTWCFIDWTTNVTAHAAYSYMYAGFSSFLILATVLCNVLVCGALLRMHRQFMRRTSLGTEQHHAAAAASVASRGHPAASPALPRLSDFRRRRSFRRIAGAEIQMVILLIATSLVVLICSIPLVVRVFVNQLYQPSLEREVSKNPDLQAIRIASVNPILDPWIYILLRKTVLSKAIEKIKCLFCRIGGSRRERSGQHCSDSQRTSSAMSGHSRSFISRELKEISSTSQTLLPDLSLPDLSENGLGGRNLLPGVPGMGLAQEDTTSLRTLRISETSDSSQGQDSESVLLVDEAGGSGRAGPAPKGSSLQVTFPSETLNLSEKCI
IC50 (PTGER2 (EP2)),IC50 (PTRGER4 (EP4)),Structure (SMILES)
18 nM,136 nM,Cc1ccc(F)c2c1cc(C)n2CCNc1cc(-c2cc(F)c(C(=O)O)s2)ncn1 [compound 47]
24 nM,351 nM,Cc1cc(F)cc2c1cc(C)n2CCNc1cc(-c2cc(F)c(C(=O)O)s2)ncn1 [compound 48]
4 nM,235 nM,COc1cccc2c1cc(C)n2CCNc1cc(-c2cc(F)c(C(=O)O)s2)ncn1 [compound 49]
1 nM,161 nM,CCOc1cc(-c2cc(NCCn3c(C)cc4ccccc43)ncn2)sc1C(=O)O [compound 50]
3 nM,143 nM,COc1cccc2c1cc(C)n2CCNc1cc(-c2cc(C)c(C(=O)O)s2)ncn1 [compound 51]
221 nM,583 nM,Cc1n[nH]c2cc(-c3cc(NCCn4c(C)cc5c(C)cc(F)cc54)ncn3)ccc12 [compound 52]
98 nM,350 nM,Cc1cc(F)cc2c1cc(C)n2CCNc1cc(-c2ccc3cnn(C)c3c2)ncn1 [compound 53]
125 nM,305 nM,Cc1nc2cc(-c3cc(NCCn4c(C)cc5c(C)ccc(F)c54)ncn3)ccc2[nH]1 [compound 54]
63 nM,570 nM,"Cc1ccc(F)c2c1cc(C)n2CCNc1cc(-c2ccc3nccnc3c2)ncn1 [compound 55, [2-(7-Fluoro-2,4-dimethyl-indol-1-yl)-ethyl]-(6-quinoxalin-6-yl-pyrimidin-4-yl)-amine]"
151 nM,698 nM,COc1ccc(Cl)c2c1cc(C)n2CCNc1cc(-c2ccc3[nH]cnc3c2)ncn1 [compound 56]
16 nM,113 nM,"COc1ccc(F)c2c1cc(C)n2CCNc1cc(-c2ccc3[nH]cnc3c2)ncn1 [compound 57, [6-(1H-Benzoimidazol-5-yl)-pyrimidin-4-yl]-[2-(7-fluoro-4-methoxy-2-methyl-indol-1-yl)-ethyl]-amine]"
22 nM,477 nM,"COc1ccc(F)c2c1cc(C)n2CCNc1cc(-c2ccc3cn[nH]c3c2)ncn1 [compound 58, [2-(7-Fluoro-4-methoxy-2-methyl-indol-1-yl)-ethyl]-[6-(1H-indazol-6-yl)-pyrimidin-4-yl]-amine]"
213 nM,485 nM,"Cc1cc(F)c(F)c2c1cc(C)n2CCNc1cc(-c2ccc3cc[nH]c3c2)ncn1 [compound 59, [2-(6,7-Difluoro-2,4-dimethyl-indol-1-yl)-ethyl]-[6-(1H-indol-6-yl)-pyrimidin-4-yl]-amine]"
85 nM,290 nM,COc1cccc2c1cc(C)n2CCNc1cc(-c2ccc3nc(C)oc3c2)ncn1 [compound 60]
98 nM,518 nM,Cc1cc(F)cc2c1cc(C)n2CCNc1cc(-c2ccc3c(c2)CC(=O)N3)ncn1 [compound 61]
11 nM,32 nM,"COc1cc(F)cc2c1cc(C)n2CCNc1cc(-c2ccc3c(c2)CCN3)ncn1 [compound 62, [6-(2,3-Dihydro-1H-indol-5-yl)-pyrimidin-4-yl]-[2-(6-fluoro-4-methoxy-2-methyl-indol-1-yl)-ethyl]-amine]"
26 nM,227 nM,"COc1cc(F)cc2c1cc(C)n2CCNc1cc(-c2ccc3cc[nH]c3c2)ncn1 [compound 63, [2-(6-Fluoro-4-methoxy-2-methyl-indol-1-yl)-ethyl]-[6-(1H-indol-6-yl)-pyrimidin-4-yl]-amine]"
47 nM,231 nM,"Cc1ccc(F)c2c1cc(C)n2CCNc1cc(-c2ccc3c(c2)CC(=O)N3)ncn1 [compound 64, 5-{6-[2-(7-Fluoro-2,4-dimethyl-indol-1-yl)-ethylamino]-pyrimidin-4-yl}-1,3-dihydro-indol-2-one]"
21 nM,189 nM,"COc1ccc(Cl)c2c1cc(C)n2CCNc1cc(-c2ccc3c(c2)CCN3)ncn1 [compound 66, [2-(7-Chloro-4-methoxy-2-methyl-indol-1-yl)-ethyl]-[6-(2,3-dihydro-1H-indol-5-yl)-pyrimidin-4-yl]-amine]"
10 nM,59 nM,"COc1ccc(F)c2c1cc(C)n2CCNc1cc(-c2ccc3c(c2)CCN3)ncn1 [compound 67, [6-(2,3-Dihydro-1H-indol-5-yl)-pyrimidin-4-yl]-[2-(7-fluoro-4-methoxy-2-methyl-indol-1-yl)-ethyl]-amine]"
24 nM,388 nM,"COc1ccc(F)c2c1cc(C)n2CCNc1cc(-c2ccc3cc[nH]c3c2)ncn1 [compound 68, [2-(7-Fluoro-4-methoxy-2-methyl-indol-1-yl)-ethyl]-[6-(1H-indol-6-yl)-pyrimidin-4-yl]-amine]"

IC50 (PTGER2 (EP2)),IC50 (PTRGER4 (EP4)),Structure (SMILES)
29 nM,94 nM,"Cc1cc(F)cc2c1cc(C)n2CCNc1cc(-c2ccc(-c3c[nH]cn3)cc2)ncn1 [compound 69, [2-(6-Fluoro-2,4-dimethyl-indol-1-yl)-ethyl]-{6-[4-(1H-imidazol-4-yl)-phenyl]-pyrimidin-4-yl}-amine]"
33 nM,145 nM,"Cc1ccc(F)c2c1cc(C)n2CCNc1cc(-c2ccc(-c3ccn[nH]3)cc2)ncn1 [compound 70, [2-(7-Fluoro-2,4-dimethyl-indol-1-yl)-ethyl]-{6-[4-(2H-pyrazol-3-yl)-phenyl]-pyrimidin-4-yl}-amine]"
86 nM,758 nM,Cc1ccc(F)c2c1cc(C)n2CCNc1cc(-c2ccc(-c3ncc[nH]3)cc2)ncn1 [compound 71]
45 nM,28 nM,"Cc1ccc(F)c2c1cc(C)n2CCNc1cc(-c2ccc(-c3c[nH]cn3)cc2)ncn1 [compound 72, [2-(7-Fluoro-2,4-dimethyl-indol-1-yl)-ethyl]-{6-[4-(1H-imidazol-4-yl)-phenyl]-pyrimidin-4-yl}-amine]"
214 nM,970 nM,Cc1ccc(F)c2c1cc(C)n2CCNc1cc(-c2ccc(-n3cccn3)cc2)ncn1 [compound 73]
45 nM,916 nM,"COc1ccc(F)c2c1cc(C)n2CCNc1cc(-c2ccc3[nH]c(=O)[nH]c3c2)ncn1 [compound 74, 5-{6-[2-(7-Fluoro-4-methoxy-2-methyl-indol-1-yl)-ethylamino]-pyrimidin-4-yl}-1,3-dihydro-2H-benzo[d]imidazol-2-one]"
7 nM,95 nM,"COc1cccc2c1cc(C)n2CCNc1cc(-c2ccc(-c3ccn[nH]3)cc2)ncn1 [compound 75, [2-(4-Methoxy-2-methyl-indol-1-yl)-ethyl]-{6-[4-(2H-pyrazol-3-yl)-phenyl]-pyrimidin-4-yl}-amine]"
21 nM,651 nM,"COc1cccc2c1cc(C)n2CCNc1cc(-c2ccc(-c3ncc[nH]3)cc2)ncn1 [compound 76, {6-[4-(1H-Imidazol-2-yl)-phenyl]-pyrimidin-4-yl}-[2-(4-methoxy-2-methyl-indol-1-yl)-ethyl]-amine]"
8 nM,89 nM,"COc1cccc2c1cc(C)n2CCNc1cc(-c2ccc(-c3c[nH]cn3)cc2)ncn1 [compound 77, {6-[4-(1H-Imidazol-4-yl)-phenyl]-pyrimidin-4-yl}-[2-(4-methoxy-2-methyl-indol-1-yl)-ethyl]-amine]"
20 nM,557 nM,"COc1cccc2c1cc(C)n2CCNc1cc(-c2ccc(-n3cccn3)cc2)ncn1 [compound 78, [2-(4-Methoxy-2-methyl-indol-1-yl)-ethyl]-[6-(4-pyrazol-1-yl-phenyl)-pyrimidin-4-yl]-amine]"
11 nM,197 nM,"Cc1ccc(F)c2c1cc(C)n2CCNc1cc(-c2ccc(-c3ncno3)cc2)ncn1 [compound 79, [2-(7-Fluoro-2,4-dimethyl-indol-1-yl)-ethyl]-[6-(4-[1,2,4]oxadiazol-5-yl-phenyl)-pyrimidin-4-yl]-amine]"
238 nM,713 nM,COc1ccc(Cl)c2c1cc(C)n2CCNc1cc(-c2ccc3[nH]c(C)nc3c2)ncn1 [compound 80]
44 nM,86 nM,"COc1ccc(F)c2c1cc(C)n2CCNc1cc(-c2ccc3[nH]c(C)nc3c2)ncn1 [compound 81, [2-(7-Fluoro-4-methoxy-2-methyl-indol-1-yl)-ethyl]-[6-(2-methyl-1H-benzoimidazol-5-yl)-pyrimidin-4-yl]-amine]"
193 nM,968 nM,COc1ccc(Cl)c2c1cc(C)n2CCNc1cc(-c2ccc3cnn(C)c3c2)ncn1 [compound 82]
89 nM,310 nM,Cc1cc(F)cc2c1cc(C)n2CCNc1cc(-c2ccc(-c3ccns3)cc2)ncn1 [compound 84]
121 nM,885 nM,COc1cccc2c1cc(C)n2CCNc1cc(-c2ccc3c(c2)CN(C)C3=O)ncn1 [compound 87]
54 nM,185 nM,COc1cc(F)cc2c1cc(C)n2CCNc1cc(-c2ccc3c(c2)CC(=O)N3)ncn1 [compound 88]
115 nM,132 nM,COc1ccc(F)c2c1cc(C)n2CCNc1cc(-c2ccc3nc(C)oc3c2)ncn1 [compound 89]
7 nM,461 nM,"COc1ccc(F)c2c1cc(C)n2CCNc1cc(-c2ccc3c(c2)CNC3=O)ncn1 [compound 90, 5-{6-[2-(7-Fluoro-4-methoxy-2-methyl-indol-1-yl)-ethylamino]-pyrimidin-4-yl}-2,3-dihydro-isoindol-1-one]"
32 nM,144 nM,"COc1ccc(F)c2c1cc(C)n2CCNc1cc(-c2ccc3c(c2)CC(=O)N3)ncn1 [compound 91, 5-{6-[2-(7-Fluoro-4-methoxy-2-methyl-indol-1-yl)-ethylamino]-pyrimidin-4-yl}-1,3-dihydro-indol-2-one]"
48 nM,358 nM,"COc1cc(F)c(F)c2c1cc(C)n2CCNc1cc(-c2ccc3cc[nH]c3c2)ncn1 [compound 92, [2-(6,7-Difluoro-4-methoxy-2-methyl-indol-1-yl)-ethyl]-[6-(1H-indol-6-yl)-pyrimidin-4-yl]-amine]"
